We go through 24 molecules from patent publication US10864201B2, “Heteroaromatic compounds as Vanin inhibitors” (Boehringer Ingelheim International GmbH, priority 2018, dated 2020).

Experiment [1] has as its target FLAG-tagged Vanin-1 (AA 22-493, T26I) (Homo sapiens (Human), UniProt O95497, T26I). Briefly: Vanin-1 enzymatic assay. It is filed as biochemical. The note with it: formation of pantothenic acid from D-pantethine (3 μM), RapidFire MS; geometric mean in case of multiple measurements; read-out: VNN 1 IC50. As to the method:
The test compounds are dissolved in 100% DMSO at a concentration of 10 mM and in a first step diluted in DMSO to a concentration of 5 mM, followed by serial dilution steps in 100% DMSO. Dilution factor and number of dilution steps may vary according to needs. Typically 8 different concentrations by 1:5 dilutions are prepared, a further intermediate dilutions of the substances is carried out with assay buffer resulting in 1% final DMSO concentration in the assay.
0.1 nM of FLAG-tagged Vanin-1 (AA 22-493, T26I, produced internally) and test compounds are incubated at room temperature for 20 minutes in assay buffer (1 mM DTT, 0.0025% Brij-35, 50 mM HEPES, pH7.5). D-Pantethine (Sigma, Cat #P2125-5G) in assay buffer is added (final concentration 3 μM) and incubated for additional 30 minutes at room temperature. Total assay volume typically is 40 μl but might be adjusted according to needs. Reaction is stopped by adding equal volume of stop solution as the reaction mixture to reach 100 nM HD-pantothenic acid (as an internal standard) and 1% TFA. Assay plates are centrifuged for 2 minutes and the formation of pantothenic acid is detected by RapidFire Mass Spectrometry (mobile phase A: 0.1% formic acid and 0.01% trifluoroacetic acid in water; mobile phase B: 47.5% acetonitrile, 47.5% methanol, 0.1% formic acid and 0.01% trifluoroacetic acid in water) using a C18, 12 μL cartridge (Agilent Cat #G9205A).
The values given in Table I result from measurements of one or more samples. In case of multiple measurements the geometric mean values are given.

A further experiment relates to Pantetheinase (vanin). Nature of the experiment: Human Whole Blood assay. The experiment is classed as cell-based. The note with it: formation of pantothenic acid after pantethine supplementation, RapidFire MS, read-out: HWB IC50. As for the experimental part:
Human Whole Blood assay: Pantetheinase (vanin) converts panteheine into pantothenic acid and cysteamine. Accordingly, in the described protocol vanin activity is quantified by formation of pantothenic acid after pantetheine supplementation via pantethine. The assay is applicable to identify vanin inhibitors. Compound stocks were dissolved in DMSO at 10 mM. Further dilutions were performed in RPMI 1640 medium (Gibco, #A-10491-01) and final concentrations in the assay were 0.032 nM-500 nM.
Human blood was drawn into a blood bag (1% heparin, 50 I.E./mL). Blood was aliquoted into cavities of 96-deep-well plates at 290 μL and mixed with 10 μL compound solution or vehicle (30 sec at 1400 rpm on a shaker). Equilibration followed at room temperature, 250 rpm and for 30 min. The assay was started by adding 10 μL of substrate solution (20 μM pantethine in 1 mM DTT, 0.0025% Brij-35, 50 mM HEPES, pH7.5) to each well, except for some blank wells which received […] substrate buffer (1 mM DTT, 0.0025% Brij-35, 50 mM HEPES, pH7.5) only. Samples were thoroughly shaken (30 sec, 1400 rpm) and reaction was allowed to take place at room temperature, 250 rpm and for 5 min. The reaction was stopped by addition of a vanin tool inhibitor in excess (BI-1 total conc. 10 μM). Centrifugation of the plate followed at 4° C., 665 G for 10 min. Then the blood plasma samples (100 μL) were transferred into another 96-deep-well plate and proteins were precipitated (5 min on ice) by adding 100 μL of ice cold precipitation solution (1 μM labelled pantothenic acid (di-β-alanine-13C6,15N2 calcium salt, Sigma, #705837) in acetonitrile). Afterwards the plate was centrifuged (4° C., 3220 G, 10 min) and supernatants (50 μL) were collected into another 96-deep-well plate and mixed (10 sec, 1400 rpm) with 150 μL ice cold formic acid (0.1%, Carl Roth GmbH+Co.KG, #CP03.1). The formation of pantothenic acid is detected by RapidFire Mass Spectrometry. A TripleQuad 6500+ (ABSciex, Germany) was equipped with an LC-1290 system, a RapidFire autosampler (Agilent, Germany) and a C18 cartridge Type C 12 μL (Agilent Cat #G9526-80000). Mobile phase A was consisting of 0.09% formic acid and 0.01% trifluoroacetic acid in water and mobile phase B of 0.09% formic acid and 0.01% trifluoroacetic acid in acetonitrile/methanol/water=47.5/47.5/5.

FLAG-tagged Vanin-1 (AA 22-493, T26I), sequence (O95497 22-493 T26I): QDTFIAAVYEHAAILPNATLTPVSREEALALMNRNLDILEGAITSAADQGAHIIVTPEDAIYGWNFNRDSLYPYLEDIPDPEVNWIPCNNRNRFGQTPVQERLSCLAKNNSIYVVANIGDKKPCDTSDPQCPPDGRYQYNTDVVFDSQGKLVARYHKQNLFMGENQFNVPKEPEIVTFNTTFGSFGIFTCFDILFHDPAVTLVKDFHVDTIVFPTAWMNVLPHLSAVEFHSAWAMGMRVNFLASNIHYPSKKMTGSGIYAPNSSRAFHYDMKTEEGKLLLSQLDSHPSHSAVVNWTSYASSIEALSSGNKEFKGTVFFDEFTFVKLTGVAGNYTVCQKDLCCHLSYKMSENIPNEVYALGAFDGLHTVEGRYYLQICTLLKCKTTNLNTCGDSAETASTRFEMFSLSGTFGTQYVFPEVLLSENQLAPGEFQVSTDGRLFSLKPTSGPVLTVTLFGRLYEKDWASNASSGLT

By IC50 is commonly meant the concentration at which inhibition is half-maximal. `C[C@]1(c2cccc(F)c2)Cc2cc(C(=O)N3CC[C@H](N4CCCC4=O)C3)cnc2N1` [Example 4.4]: the 50% inhibitory concentration (IC50) is 0.1 nM in experiment [1] and 2.1 nM in the experiment on Pantetheinase (vanin).

On to `C[C@]1(c2ccc(F)cc2)Cc2cc(C(=O)N3CCC4(CCOCC4)C3)cnc2N1` [Example 5.1, 2-[(2R)-2-(4-Fluorophenyl)-2-methyl-1H,2H,3H-pyrrolo[2,3-b]pyridine-5-carbonyl]-8-oxa-2-azaspiro[4.5]decane], for which the IC50 is 0.4 nM in experiment [1] and 3.6 nM in the experiment with Pantetheinase (vanin).

With `C[C@]1(c2ccc(F)cc2)Cc2cc(C(=O)N3CC[C@H](N4CCOC4=O)C3)cnc2N1` [Example 5.2], the IC50 in experiment [1] amounted to 0.1 nM; in the experiment on Pantetheinase (vanin), 1.5 nM.

On to `C[C@]1(c2ccc(F)cc2)Cc2cc(C(=O)N3CC[C@H](N4CCCC4=O)C3)cnc2N1` [Example 5.3], for which the half-inhibitory concentration (IC50) in experiment [1] was 0.1 nM; with Pantetheinase (vanin) it was 1.5 nM.

As to `CN(c1ncccn1)[C@H]1CCN(C(=O)c2cnc3c(c2)C[C@](C)(c2ccc(F)cc2)N3)C1` [Example 5.5], the IC50 is 0.2 nM in experiment [1] and 17.2 nM in the experiment with Pantetheinase (vanin).

On to `C[C@]1(c2ccc(F)cc2)Cc2cc(C(=O)N3CC4(CCOCC4)C3)cnc2N1` [Example 5.6], for which the results for the concentration for half-maximal inhibition (IC50) (in experiment [1]; in the experiment with Pantetheinase (vanin)) were 0.6 nM and 10.3 nM, respectively.

On to `CC(=O)N(C)[C@H]1CCN(C(=O)c2cnc3c(c2)C[C@](C)(c2ccc(F)cc2)N3)C1` [Example 6, N-[(3S)-1-[(2R)-2-(4-Fluorophenyl)-2-methyl-1H,2H,3H-pyrrolo[2,3-b]lpyridine-5-carbonyl]-pyrrolidin-3-yl]-N-methylacetamide], for which the results for the IC50 (in experiment [1]; in the experiment on Pantetheinase (vanin)) were 0.2 nM and 1.9 nM, respectively.

For `CC(=O)N(C)[C@H]1CCN(C(=O)c2cnc3c(c2)C[C@](C)(c2cccc(Cl)c2)N3)C1` [Example 7.2], the 50% inhibitory concentration (IC50) in experiment [1] was found to be 0.1 nM; with Pantetheinase (vanin), 2 nM.

Take `CC(=O)N(C)[C@H]1CCN(C(=O)c2cnc3c(c2)C[C@@](C)(c2cccc(Cl)c2)N3)C1` [Example 7.3]: the results for the IC50 (in experiment [1]; in the experiment on Pantetheinase (vanin)) were 18.9 nM and 424 nM, respectively.

For the molecule `C[C@]1(c2cccc(Cl)c2)Cc2cc(C(=O)N3CC[C@H](N4CCOC4=O)C3)cnc2N1` [Example 7.4], the IC50 in experiment [1] is 0.1 nM; with Pantetheinase (vanin) it was 1.9 nM.

For `C[C@]1(c2ccc(Cl)cc2)Cc2cc(C(=O)N3CC[C@H](N4CCOC4=O)C3)cnc2N1` [Example 8.2], the half-maximal inhibitory concentration (IC50) was 0.1 nM in experiment [1] and 2.6 nM in the experiment on Pantetheinase (vanin).

Turning to `C[C@]1(c2ccc(Cl)cc2)Cc2cc(C(=O)N3CC[C@H](N4CCCC4=O)C3)cnc2N1` [Example 8.3], the values for the 50% inhibitory concentration (IC50) (in experiment [1]; in the experiment on Pantetheinase (vanin)) were 0.1 nM and 3.8 nM, respectively.

As to `CC(=O)N(C)[C@H]1CCN(C(=O)c2cnc3c(c2)C[C@](C)(c2ccc(Cl)cc2)N3)C1` [Example 9.1, N-[(3S)-1-[(2R)-2-(4-Chlorophenyl)-2-methyl-1H,2H,3H-pyrrolo[2,3-b]pyridine-5-carbonyl]pyrrolidin-3-yl]-N-methylacetamide], the figures for the IC50 (in experiment [1]; in the experiment on Pantetheinase (vanin)) were 0.1 nM and 3 nM, respectively.

In the case of `CC(=O)N(C)[C@H]1CCN(C(=O)c2cnc3c(c2)C[C@](C)(c2ccccc2)N3)C1` [Example 9.3], the IC50 in experiment [1] is 0.2 nM; in the experiment on Pantetheinase (vanin), 2.1 nM.

On to `CC1(C)CCc2cc(C(=O)N3CC4(CCOCC4)C3)cnc2N1` [Example 11.2], for which the half-maximal inhibitory concentration (IC50) in experiment [1] turned out to be 0.3 nM; in the experiment on Pantetheinase (vanin) it was 4.5 nM.

With `CN(c1ncccn1)[C@H]1CCN(C(=O)c2cnc3c(c2)CCC(C)(C)N3)C1` [Example 11.3], the figures for the IC50 (in experiment [1]; with Pantetheinase (vanin)) were 0.2 nM and 2.9 nM, respectively.

With `CN(C(=O)C1(C)CCC1)[C@H]1CCN(C(=O)c2cnc3c(c2)CCC(C)(C)N3)C1` [Example 11.4], the IC50 in experiment [1] came to 0.9 nM; with Pantetheinase (vanin), 11.4 nM.

For the molecule `CC(=O)N(C)[C@H]1CCN(C(=O)c2cnc3c(c2)CCC(C)(C)N3)C1` [Example 11.6], the IC50 in experiment [1] is 0.5 nM; in the experiment with Pantetheinase (vanin), 12.6 nM.

For `CC1(C)CCc2cc(C(=O)N3CC[C@H](N4CCCC4=O)C3)cnc2N1` [Example 11.8], the IC50 is 0.7 nM in experiment [1] and 5.2 nM with Pantetheinase (vanin).

Take `CN(C(=O)C1CC1)[C@H]1CCN(C(=O)c2cnc3c(c2)CCC(C)(C)N3)C1` [Example 11.9]: the IC50 amounted to 0.7 nM in experiment [1] and 3.5 nM in the experiment on Pantetheinase (vanin).

In the case of `CN(C(=O)C1CCC1)[C@H]1CCN(C(=O)c2cnc3c(c2)CCC(C)(C)N3)C1` [Example 11.10], the IC50 in experiment [1] worked out at 0.6 nM; in the experiment on Pantetheinase (vanin) it was 10.6 nM.

On to `CN(C(=O)C1CC(F)(F)C1)[C@H]1CCN(C(=O)c2cnc3c(c2)CCC(C)(C)N3)C1` [Example 11.11], for which the IC50 is 0.5 nM in experiment [1] and 6.9 nM in the experiment on Pantetheinase (vanin).

Take `CCC1(C)CCc2cc(C(=O)N3CC[C@H](N(C)C(C)=O)C3)cnc2N1` (stereo partly drawn) [Example 11.12]: the figures for the 50% inhibitory concentration (IC50) (in experiment [1]; in the experiment with Pantetheinase (vanin)) were 0.5 nM and 5.7 nM, respectively.

Regarding `CC(=O)N(C)[C@H]1CCN(C(=O)c2cnc3c(c2)CCC(C)(c2ccccc2)N3)C1` (stereo partly drawn) [Example 12.2], the IC50 in experiment [1] amounted to 0.3 nM; in the experiment on Pantetheinase (vanin), 8.2 nM.
